pKi: −log10 of the molar value.
Molecular target: T1, Urotensin-2 receptor (Rattus norvegicus, UniProt P49684)
T1 sequence (P49684 whole entry): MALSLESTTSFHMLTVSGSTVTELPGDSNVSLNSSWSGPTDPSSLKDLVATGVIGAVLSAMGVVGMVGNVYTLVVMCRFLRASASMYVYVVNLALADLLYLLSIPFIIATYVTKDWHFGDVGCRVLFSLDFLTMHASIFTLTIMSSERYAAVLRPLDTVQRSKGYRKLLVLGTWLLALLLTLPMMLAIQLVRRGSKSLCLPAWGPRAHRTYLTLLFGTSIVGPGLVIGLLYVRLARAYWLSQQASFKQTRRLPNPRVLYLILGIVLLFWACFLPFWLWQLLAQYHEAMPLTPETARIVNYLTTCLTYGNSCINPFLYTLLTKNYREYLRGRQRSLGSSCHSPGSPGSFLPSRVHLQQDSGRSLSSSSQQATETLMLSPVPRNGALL

pKi: 5.83
SMILES: Cc1cc(NC(=O)NCCN2CCC(O)(Cc3ccccc3)CC2)c2ccccc2n1 [ACT-058362]

— BindingDB's records for doi:10.1124/jpet.104.068320 (Actelion Pharmaceuticals, 2004)
